Patent US10689344B2, “Biphenylamide derivative Hsp90 inhibitors” (University of Kansas, priority 2013, dated 2020)

Assays:
[1] = test system: SKBr3 (estrogen receptor negative, HER2 over-expressing breast cancer cells); assay: Anti-proliferation assay (MTS/PMS, 72 h), SKBr3; assay type: cell-based; settings: Homo sapiens
Summary of the method: (§1)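 Cells seeded at 2000/well, attached overnight, then exposed to compound at varying concentrations (1% DMSO final) for 72 h at 37° C, 5% CO2. Viability by MTS/PMS, normalised to 1% DMSO controls as 100% proliferation; IC50 from separate triplicate experiments.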

[2] = test system: MCF-7 (estrogen receptor positive breast cancer cells); assay: Anti-proliferation assay (MTS/PMS, 72 h), MCF-7; assay type: cell-based; settings: Homo sapiens
Summary of the method: as §1

[3] = test system: Hsp90-dependent client proteins (Her2, Raf, Akt) in MCF-7 cells; assay: Western blot analyses of Hsp90-dependent client proteins from MCF-7 cell lysate; assay type: cell-based; settings: for non-Hsp90-dependent protein actin (western blot): FIG. 1; for Hsp90-dependent client proteins Her2, Raf, and Akt (western blot): FIG. 1, at the same concentration needed to manifest anti-proliferative activity (H 5-fold, L 1/2)
Protocol: (§2) FIG. 1—Western blot analyses of Hsp90-dependent client proteins from MCF-7 breast cancer cell lysate upon treatment with biphenyl derivatives. H represents a concentration equal to 5-fold of the anti-proliferative activity. L represents a concentration ½ of the anti-proliferative activity. Geldanamycin (G, 0.5 μM) and dimethylsulfoxide (D, 100%) were employed as positive and negative controls.
as §2, with “FIGS. 2A & 2B—Western” for “FIG. 1—Western”, “derivatives. Concentrations (in μM) were indicated above each line.” for “derivatives.”, “equal to 0.5-fold” for “½”, “(GDA,” for “(G,”, “(DMSO,” for “(D,”
FIG. 3—Western blot analyses of Hsp90-dependent client proteins from MCF-7 breast cancer cell lysate upon treatment with compound 6l. Concentrations (in μM) were indicated above each line, and geldanamycin (GDA, 0.5 μM) and dimethylsulfoxide (DMSO) were employed as positive and negative controls.
MCF-7 cells were cultured as described above and treated with various concentrations of drug, GDA in DMSO (1% DMSO final concentration), or vehicle (DMSO) for 24 h. Cells were harvested in cold PBS and lysed in RIPA lysis buffer containing 1 mM PMSF, 2 mM sodium orthovanadate, and protease inhibitors on ice for 1 h. Lysates were clarified at 14000 g for 10 min at 4° C. Protein concentrations were determined using the Pierce BCA protein assay kit per the manufacturer's instructions. Equal amounts of protein (20 μg) were electrophoresed under reducing conditions, transferred to a nitrocellulose membrane, and immunoblotted with the corresponding specific antibodies. Membranes were incubated with an appropriate horseradish peroxidase-labeled secondary antibody, developed with a chemiluminescent substrate, and visualized.

SKBr3 cells = settings: cited from earlier work
[4] = test system: JMAR (Head and Neck Cancer); assay: Activity of compounds in cancer cell lines, JMAR; assay type: cell-based; settings: Table 12, JMAR (Head and Neck Cancer)
Excerpt: Biological activity of these compounds of the present disclosure may be measured using a variety of different methods and techniques. In some embodiments of the present disclosure, the activity is measuring using anti-proliferation assays to determine an IC50 value for particular cell lines such as JMAR and MCF-7. Additionally, in other embodiments, the activity of the instant compounds is measuring using Western blot and measuring protein expression in a variety of different downstream poteins regulated by Hsp90.
(§3) Cells were maintained in a 1:1 mixture of Advanced DMEM/F12 (Gibco) supplemented with non-essential amino acids, L-glutamine (2 mM), streptomycin (500 μg/mL), penicillin (100 units/mL), and 10% FBS. Cells were grown to confluence in a humidified atmosphere (37° C., 5% CO2), seeded (2000/well, 100 μL) in 96-well plates, and allowed to attach overnight. Compound at varying concentrations in DMSO (1% DMSO final concentration) was added, and cells were returned to the incubator for 72 h. At 72 h, the number of viable cells was determined using an MTS/PMS cell proliferation kit (Promega) per the manufacturer's instructions. Cells incubated in 1% DMSO were used at 100% proliferation, and values were adjusted accordingly. IC50 values were calculated from separate experiments performed in triplicate using GraphPad Prism.

SKME128 (Melanoma) = assay: Activity of compounds in cancer cell lines, SKME128; assay type: cell-based; settings: Table 12, SKME128 (Melanoma)
Protocol: as §3

[5] = SK-BR-3, Table 9, para-meta biphenyl core with prenylated benzylamide
[6] = MCF7, Table 9, para-meta biphenyl core with prenylated benzylamide
[7] = SK-BR-3, Table 1, ortho, meta and para biphenyl cores
[8] = MCF7, Table 1, ortho, meta and para biphenyl cores
[9] = MCF-7 cells, FIG. 1, all concentrations tested

## CC(C)=CCc1cc(C(=O)Nc2cccc(-c3ccc(OC4CCN(C)CC4)cc3)c2)ccc1O [Compound 3a]
[1]; [5]
  IC50: 2940 ± 110 nM
[2]; [6]
  IC50: 2210 ± 60 nM
[3]; MCF-7 cell lysates, FIG. 2B
  Her2, Raf-1 and p-Akt (western blot, concentration-dependent analysis): degradation of Her2, Raf-1 and p-Akt

## COc1cccc(-c2cc(C(=O)Nc3ccc(-c4ccc(OC5CCN(C)CC5)cc4)cc3)ccc2OC)c1 [Compound 9a, 3′,6-dimethoxy-N-(4′-((1-methylpiperidin-4-yl)oxy)-[1,1′-biphenyl]-4-yl)-[1,1′-biphenyl]-3-carboxamide]
[1]; [7]
  IC50: 470 ± 60 nM
[1]; SK-BR-3, Table 3, substituted para-para biphenyl core
  IC50: 470 ± 60 nM
[1]; SK-BR-3, Table 5, modified linkers in para-para biphenyl core
  IC50: 470 ± 60 nM
[1]; SK-BR-3, Table 7, para-para biphenyl core with modified ether groups
  IC50: 470 ± 60 nM
[1]; SK-BR-3, Table 8, para-para biphenyl core with substituted biphenylamide group
  IC50: 470 ± 60 nM
[2]; [8]
  IC50: 710 ± 20 nM
[2]; MCF7, Table 3, substituted para-para biphenyl core
  IC50: 710 ± 20 nM
[2]; MCF7, Table 5, modified linkers in para-para biphenyl core
  IC50: 710 ± 20 nM
[2]; MCF7, Table 7, para-para biphenyl core with modified ether groups
  IC50: 710 ± 20 nM
[2]; MCF7, Table 8, para-para biphenyl core with substituted biphenylamide group
  IC50: 710 ± 20 nM
[3]; MCF-7 cells
  non-Hsp90-dependent protein actin (western blot): not affected
  Hsp90-dependent client proteins Her2, Raf, and Akt (western blot): degradation in a concentration-dependent manner
[3]; [9]
  Hsp90 levels (western blot): remained constant

## CO[C@@H]1[C@@H](OC(N)=O)[C@@H](O)[C@H](Oc2ccc3c(O)c(NC(=O)c4ccc(O)c(CC=C(C)C)c4)c(=O)oc3c2C)OC1(C)C [Novobiocin]
SKBr3 cells
  efficiency as Hsp90 C-terminal inhibitor: ~700 µM

## COc1cccc(-c2cc(C(=O)Nc3cccc(-c4ccc(OC5CCN(C)CC5)cc4)c3)ccc2OC)c1 [Compound 6a, 3′,6-dimethoxy-N-(4′-((1-methylpiperidin-4-yl)oxy)-[1,1′-biphenyl]-3-yl)-[1,1′-biphenyl]-3-carboxamide]
[1]; [7]
  IC50: 3650 ± 140 nM
[1]; [5]
  IC50: 3470 ± 470 nM
[2]; [8]
  IC50: 1250 ± 20 nM
[2]; [6]
  IC50: 2710 ± 400 nM
[3]; MCF-7 cell lysates, FIG. 2A, concentrations that mirror anti-proliferative IC50 values
  Hsp90 client proteins Her2 and Raf-1 (western blot): degraded
[3]; MCF-7 cells
  non-Hsp90-dependent protein actin (western blot): not affected
  Hsp90-dependent client proteins Her2, Raf, and Akt (western blot): degradation in a concentration-dependent manner
[3]; [9]
  Hsp90 levels (western blot): remained constant

## CN1CCC(Oc2ccc(-c3cccc(NC(=O)c4ccc(Br)cc4)c3)cc2)CC1 [Compound 6l, 4-Bromo-N-(4′-((1-methylpiperidin-4-yl)oxy)-[1,1′-biphenyl]-3-yl)benzamide]
[1]; SK-BR-3, Table 2, para-meta biphenyl core with substituted benzylamide
  IC50: 1940 ± 110 nM
[2]; MCF7, Table 2, para-meta biphenyl core with substituted benzylamide
  IC50: 880 ± 70 nM
[3]; MCF-7 cell lysates, FIG. 3
  Hsp90-dependent client proteins Her2, Raf-1 and p-Akt (western blot): degraded in a concentration dependent manner
  Hsp90 levels (western blot): remained unchanged
  actin levels (western blot): remained constant

## CN1CCC(Oc2ccc(-c3cccc(NC(=O)c4ccc(Br)cc4)c3)cc2)CC1 [drawing 161]
[4]
  IC50: 110 nM

## COc1ccc(C(=O)Nc2ccc(Nc3ccc(OC4CCN(C)CC4)cc3)cc2)cc1 [drawing 162]
[4]
  IC50: 9.7 nM

## CN1CCC(Oc2ccc(-c3ccc(NC(=O)c4ccc(C(C)(C)C)cc4)cc3)cc2)CC1 [drawing 163]
SKME128 (Melanoma)
  IC50: 480 nM
